Results on two compounds are retold here after paper PMC7589200, “Identification of Putative Non-Substrate-Based XT-I Inhibitors by Natural Product Library Screening” (Biomolecules, 2020).

Where two headings read alike, the source gives them in different places.

One assay addresses T1, XT-I (Homo sapiens, UniProt Q86Y38).
T1 sequence (Q86Y38 260-959 limits assumed): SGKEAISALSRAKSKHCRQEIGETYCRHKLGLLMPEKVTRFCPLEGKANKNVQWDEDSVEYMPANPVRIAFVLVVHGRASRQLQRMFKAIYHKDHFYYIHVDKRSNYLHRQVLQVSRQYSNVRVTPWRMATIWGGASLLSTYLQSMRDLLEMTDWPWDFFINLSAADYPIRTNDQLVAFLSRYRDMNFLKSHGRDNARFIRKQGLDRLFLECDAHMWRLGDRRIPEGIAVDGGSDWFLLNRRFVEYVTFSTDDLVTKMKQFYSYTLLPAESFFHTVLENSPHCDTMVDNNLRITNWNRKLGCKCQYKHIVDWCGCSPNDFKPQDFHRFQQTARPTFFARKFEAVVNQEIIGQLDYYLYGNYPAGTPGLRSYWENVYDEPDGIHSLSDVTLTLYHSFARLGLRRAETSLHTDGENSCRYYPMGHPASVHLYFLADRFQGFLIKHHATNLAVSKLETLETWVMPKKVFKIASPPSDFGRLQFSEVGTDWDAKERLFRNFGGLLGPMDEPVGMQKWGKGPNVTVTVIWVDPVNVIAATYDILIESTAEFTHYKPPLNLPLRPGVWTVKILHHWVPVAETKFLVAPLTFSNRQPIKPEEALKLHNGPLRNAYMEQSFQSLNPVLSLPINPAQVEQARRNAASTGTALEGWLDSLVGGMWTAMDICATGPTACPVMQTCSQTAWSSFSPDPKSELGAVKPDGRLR
As to the kind of experiment: IC50 determination, UPLC/ESI-MS/MS XT-I assay. The format is biochemical. The source says:
The measurement of relative XT-I activity among different samples is based on the XT-catalyzed incorporation of xylose from UDP-D-xylose on a modified bikunin-derived peptide after a fixed reaction time. The assay was originally developed for the determination of XT activity in human- or cell-culture-derived samples [13] by ultra-performance liquid chromatography/electrospray ionization tandem mass spectrometry (UPLC/ESI-MS/MS). The UPLC/ESI-MS/MS XT assay was recently modified toward a XT-I selective activity determination in human serum and cell culture samples (unpublished data). The relative intensities of the xylosylated peptide species abundance obtained with the respective m/z ratio were directly proportional to the relative XT-I activity of the sample. The XT-I activity determined is expressed in arbitrary units and normalized to the total protein content per 1 mL sample volume in cell culture approaches. A calibrator probe with a fixed amount of recombinant XT-I enzyme was included in every UPLC-MS/MS XT-I assay for assay comparability across multiple runs. […]
Inhibitor candidates from the NP compound library were screened using the UPLC/ESI-MS/MS XT-I assay with recombinant XT-I protein solution from pgsA-6HisXT1-K4 cells. […] The XT-I activity of the protein-inhibitor mixtures were determined by UPLC/ESI-MS/MS as described above. […]

Another assay concerns the target T2, recombinant human XT-I (Homo sapiens, UniProt Q86Y38).
T2 sequence (Q86Y38 252-959 limits assumed): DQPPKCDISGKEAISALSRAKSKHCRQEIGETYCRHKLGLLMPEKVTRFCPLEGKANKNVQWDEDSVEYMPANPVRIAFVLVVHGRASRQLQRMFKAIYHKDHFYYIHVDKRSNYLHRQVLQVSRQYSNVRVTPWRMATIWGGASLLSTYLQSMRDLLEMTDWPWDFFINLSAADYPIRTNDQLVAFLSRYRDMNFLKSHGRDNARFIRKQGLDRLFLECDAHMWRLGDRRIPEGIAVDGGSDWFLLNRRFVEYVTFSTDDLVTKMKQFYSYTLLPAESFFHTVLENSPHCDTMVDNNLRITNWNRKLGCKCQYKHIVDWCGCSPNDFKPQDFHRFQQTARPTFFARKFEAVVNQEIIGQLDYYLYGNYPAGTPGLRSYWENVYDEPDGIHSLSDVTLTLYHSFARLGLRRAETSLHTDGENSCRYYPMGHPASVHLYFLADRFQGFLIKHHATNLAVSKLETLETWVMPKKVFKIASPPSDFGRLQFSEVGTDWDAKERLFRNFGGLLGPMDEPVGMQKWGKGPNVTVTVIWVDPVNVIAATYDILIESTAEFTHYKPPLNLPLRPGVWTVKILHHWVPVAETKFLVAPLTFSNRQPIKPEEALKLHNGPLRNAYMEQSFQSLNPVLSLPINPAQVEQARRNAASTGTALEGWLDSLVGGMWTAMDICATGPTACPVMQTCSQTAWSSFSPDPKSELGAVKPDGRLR
Kind of assay: NP library inhibitor screening, UPLC/ESI-MS/MS XT-I assay. The following applies: 50 μM inhibitor, technical duplicates; for XT-I Activity [%]: Table 2, relative to control (DMSO = 100%); for remaining activity at 50 µM: Table S1, relative to negative control containing DMSO. The format is biochemical.

Regarding `C[C@@H]1[C@H](O)[C@@H](C)/C=C/C=C/C=C/C=C/C=C/C=C/C=C/[C@H](O[C@@H]2O[C@H](C)[C@@H](O)[C@H](N)[C@@H]2O)C[C@@H]2O[C@](O)(C[C@@H](O)C[C@@H](O)[C@H](O)CC[C@@H](O)C[C@@H](O)CC(=O)O[C@H]1C)C[C@H](O)[C@H]2C(=O)O` [Compound 17, Amphotericin B], on XT-I (15 μM UDP-D-xylose, 10.5 μM acceptor peptide, 1 h preincubation at RT, read-out: IC50), the IC50 was determined as 12.2 ± 1 µM. On recombinant human XT-I, the “XT-I Activity [%]” value is given as 25% and the remaining activity at 50 µM was found to be 25%.

In turn, `CC1=C(O)C(=O)C=C2C1=CC=C1[C@@]2(C)CC[C@@]2(C)[C@@H]3C[C@](C)(C(=O)O)CC[C@]3(C)CC[C@]12C` [Compound 68, Celastrol] displayed an IC50 against XT-I of 11 ± 1 µM. Also, on recombinant human XT-I, the “XT-I Activity [%]” value is reported as 38% and the remaining activity at 50 µM was determined as 38%.

Broadly, the IC50 is the concentration needed to halve the response being measured. For orientation: remaining activity means the activity still measured, relative to the control.
